Tests used:
Type in all cases: in vivo, rice (Nipponbare)
Details in all cases: mRNA in rice leaf sheaths after hormone treatment, Northern blotting (FIG. 2)
[1] = test system: eight types of tubulin (β-tubulin mRNA expression in rice leaf sheaths); assay: Northern blotting of hormone specificity in rice leaf sheaths, all eight β-tubulins
Protocol: (§1) After treatment with each hormone, Northern blotting using specific probes was performed to confirm the mRNA expression in rice leaf sheaths. C: No treatment; GA: gibberellin; BL: brassinolide; ABA: abscisic acid; IAA: auxin; BA: cytokinin.
(§2) Rice (variety: Nipponbare) was grown under conditions of 600 μmol/m^2s white fluorescent light at 25° C., 75% humidity, and under a twelve-hour day/night cycle. Commercially available high-grade gibberellin (GA3), brassinolide (BL), auxin (IAA), cytokinin (BA), and abscisic acid (ABA) were used. RNA for RNA blotting analysis was extracted using Chomczynski and Sacchi's method (Chomczynski, P. and Sacchi, N., 1987, Anal. Biochem., 162: 156-159). An oligotex-dT-30 mRNA purification kit (Takara) was used to prepare mRNA for microarray analysis.
(§3) Primers were constructed specifically for eight types of β-tubulin, respectively. PCR was carried out using each β-tubulin EST clone as a template, and using a T3 primer and a primer specific to the 3′-untranslated region of each β-tubulin. […]
(§4) About 0.5 g of tissue samples rapid frozen in liquid nitrogen was ground to a powder using a mortar and a pastle, and total RNA was prepared by the methods of Chomczynski and Sacchi (Chomczynski, P. and Sacchi, N., 1987, Anal. Biochem., 162: 156-159). […] The expression amount was analyzed using image analysis apparatus (Amersham Pharmacia Biotech).

[2] = test system: OsTUB5; assay: Northern blotting of hormone specificity in rice leaf sheaths, OsTUB5
Protocol: as §1, §2, §3, §4

[3] = test system: OsTUB6; assay: Northern blotting of hormone specificity in rice leaf sheaths, OsTUB6
Protocol: as §1, §2, §3, §4

[4] = test system: OsTUB7; assay: Northern blotting of hormone specificity in rice leaf sheaths, OsTUB7
Protocol: as §1, §2, §3, §4

Molecule | expression of all eight types of tubulin [1] | expression of OsTUB5 [2] | expression of OsTUB6 [3] | expression of OsTUB7 [4]
CC1=CC(=O)CC(C)(C)[C@@]1(O)/C=C/C(C)=C\C(=O)O [abscisic acid] | suppressed | – | – | –
CC(C)[C@H](C)[C@@H](O)[C@H](O)[C@@H](C)[C@H]1CC[C@H]2[C@@H]3COC(=O)[C@H]4C[C@H](O)[C@H](O)C[C@]4(C)[C@H]3CC[C@]12C [brassinolide] | – | increased | increased | increased
gibberellin | – | markedly increased | markedly increased | markedly increased

— patent US20050009061A1, “Anther-specific genes, their promoters, and uses of the same” (priority 2003, published 2005)
